Results from article PMC10671693, “Design, Synthesis, and Antitumor Activity Evaluation of Proteolysis-Targeting Chimeras as Degraders of Extracellular Signal-Regulated Kinases 1/2” (International Journal of Molecular Sciences, 2023).
“Also recorded” adds a separate entry of the source.

How the values were obtained:
ERK1/2 = experiment: Western blot ERK1/2 protein degradation assay in A375 cells; assay type: cell-based, human; details: 48 h; for ERK1/2 degradative activity (in words): Western blot; for DC50: Western blotting and grayscale quantification; for DCmax: Western blot with grayscale quantification
Protocol: (§1) A375, HCT116, Calu-6, and B16-F10 cells were purchased from American Type Culture Collection (ATCC) and cultured in DMEM high glucose media (SH30022.01, Cytiva, Shanghai, China) supplemented with 10% fetal bovine serum (10099-144, Gibco, Carlsbad, CA, USA) and 1% penicillin/streptomycin (Solarbio, Beijing, China) in an incubator at 37 °C with 5% CO2.
Cells were cultured under the indicated conditions as described in “Cell culture”. Cells were seeded in 6-well plates (3516, Corning, New York, NY, USA). Compounds were dissolved in DMSO for storage (10 mM). Following compound treatment, cells were washed with PBS, scraped from the plate, and lysed using cell lysis buffer (Applygen, Beijing, China). After the protein in the cell lysate was quantified via the BCA quantification method, the samples were placed in a metal bath at 100 °C and heated for 5 min. Cell lysates were separated using a 10% SDS–PAGE gel and transferred to PVDF membranes (Merck Millipore, Burlington, MA, USA). The PVDF membrane was blocked with 5% nonfat dry milk in TBST for one hour. The PVDF membrane was transferred to the antibody diluent and incubated overnight at 4 °C. PVDF membranes were washed three times with TBST for 5 min each and then incubated with the appropriate HRP-conjugated secondary antibody for 1 h at room temperature. After washing three more times with TBST, the PVDF membrane was stained with a hypersensitive ECL chemiluminescence reagent (Biodragon, Beijing, China) and then imaged with Tanon 5200. Grayscale quantitative analysis was performed using ImageJ software. Statistical analysis was performed using GraphPad Prism 8. DC50 and Dmax values were fitted using a four-parameter [inhibitor] versus response and reported directly from the Prism output. Mean ± SD and unpaired t tests were performed in GraphPad Prism.

A375 cells = experiment: Cell proliferation (CCK8) assay, A375; assay type: cell-based; details: Homo sapiens, A-375, A375, 72 h, read-out: IC50 (growth inhibition, cytotoxicity)
Protocol: as §1
(§2) A 96-well plate (3599, Corning, New York, NY, USA) was inoculated with 100 μL of complete medium containing 10,000 cells, and the experimental, control, and blank groups were established. Three parallel wells were used per concentration. After 10 h, the media from the experimental and control groups were replaced with a compound containing the indicated concentration of the complete medium. Cells were incubated for 72 h before 10 μL of CCK8 reagent (CA1210, Solarbio, Beijing, China) was added to each well and incubated for 1 h. Using a microplate reader (Tecan, Mannendorf, Switzerland), the absorbance at 450 nm was measured. The IC50 values were determined using GraphPad Prism 8 and nonlinear regression curve fitting.

HCT116 cells = experiment: Cell proliferation (CCK8) assay, HCT116; assay type: cell-based, human; details: Homo sapiens, HCT-116, 72 h, HCT116, 72 h, read-out: IC50 (growth inhibition, cytotoxicity)
Protocol: as §1, §2

Calu-6 cells = experiment: Cell proliferation (CCK8) assay, Calu-6; assay type: cell-based; details: Homo sapiens, Calu-6, 72 h, read-out: IC50 (growth inhibition, cytotoxicity)
Protocol: as §1, §2

HCT116 tumor = experiment: HCT116 subcutaneous xenograft model in nude mice; assay type: in vivo; details: mouse, in vivo
Protocol: Male BALB/c nude mice of around 8 weeks old were purchased from Charles River (Beijing, China). Nude mice were raised in SPF-grade animal rooms and had access to water and food ad libitum. HCT116 colorectal cancer cells were grown in DMEM supplemented with 10% fetal calf serum and 1% penicillin/streptomycin under standard cell culture conditions. HCT116 xenografts were prepared by subcutaneously injecting 5× 10^6 cells suspended in PBS into the right flank of each male BALB/c nude mouse. Tumor growth was monitored via caliper measurement, and volume was calculated using the following equation: 0.5 × max (length/width) × min (length/width) × min (length/width). When the tumors reached an average of approximately 100 mm^3, the mice were randomized into groups of five. The mice were injected intraperitoneally once a day at doses of 6, 12, 25 mg/kg compound B1-10J and 25 mg/kg 5-FU. Body weights and tumor volumes were measured every 2–3 days. All studies were appropriately statistically powered.

Compound | DC50 (ERK1/2) | melting point | ERK1/2 degradative activity (in words) (ERK1/2) | DCmax (ERK1/2) | IC50 (A375 cells) | IC50 (HCT116 cells) | IC50 (Calu-6 cells) | body weight / tolerability (HCT116 tumor)
Cc1cccc(CN2C(=O)c3cc(-c4nc(Nc5ccnc(C#CCCNC(=O)CCCCCCCCCCCCC(=O)N[C@H](C(=O)N6C[C@H](O)C[C@H]6C(=O)N[C@@H](C)c6ccc(-c7scnc7C)cc6)C(C)(C)C)c5)ncc4C)cn3C[C@H]2C)n1 [Compound B2-14] | 307 ± 191 nM | 128 to 129 °C | effective ERK1/2 degraders | exceeding 65% | – | – | – | –
Cc1cccc(CN2C(=O)c3cc(-c4nc(Nc5ccnc(C#CCCN(C)CCCCCCCCCCCC(=O)N[C@H](C(=O)N6C[C@H](O)C[C@H]6C(=O)N[C@@H](C)c6ccc(-c7scnc7C)cc6)C(C)(C)C)c5)ncc4C)cn3C[C@H]2C)n1 [Compound B2-12J] | – | – | lost its degradative activity | – | – | – | – | –
O=c1[nH]cc(F)c(=O)[nH]1 [Compound 5-FU, 5-fluorouracil, reference compound] | – | – | – | – | – | – | – | trend of weight loss
Cc1cccc(CN2C(=O)c3cc(-c4nc(Nc5cccc(C#CCCNC(=O)CCCCCCCCCNc6cccc7c6C(=O)N(C6CCC(=O)NC6=O)C7=O)c5)ncc4C)cn3C[C@H]2C)n1 (stereo partly shown) [Compound B1-10B] | – | – | no degradative activity was observed | – | – | – | – | –
Cc1cccc(CN2C(=O)c3cc(-c4nc(Nc5ccn(CCCCNC(=O)CCCCCCCCCNc6cccc7c6C(=O)N(C6CCC(=O)NC6=O)C7=O)n5)ncc4C)cn3C[C@H]2C)n1 (stereo partly shown) [Compound B1-10BZ] | – | – | degradative activity disappeared; also recorded: no degradative activity was observed | – | – | – | – | –
CNCCC#Cc1cc(Nc2ncc(C)c(-c3cc4n(c3)C[C@@H](C)N(Cc3cccc(C)n3)C4=O)n2)ccn1 [B-J] | – | – | – | – | 16.8 ± 3 µM | 17.8 ± 3.9 µM | 6.5 ± 1.3 µM | –
Cc1cccc(CN2C(=O)c3cc(-c4nc(Nc5ccnc(C#CCCNC(=O)CCCCCCCCCNc6cccc7c6C(=O)N(C6CCC(=O)NC6=O)C7=O)c5)ncc4C)cn3C[C@H]2C)n1 (stereo partly shown) [Compound B1-10] | 333 ± 169 nM | – | effective ERK1/2 degraders | exceeding 65% | > 30 µM | > 30 µM | > 30 µM | –

Second part, led by results:

DC50 (ERK1/2) | melting point | Compound | ERK1/2 degradative activity (in words) (ERK1/2) | DCmax (ERK1/2) | IC50 (A375 cells) | IC50 (HCT116 cells) | IC50 (Calu-6 cells) | body weight / tolerability (HCT116 tumor)
3800 ± 1820 nM | 145 to 146 °C | Cc1cccc(CN2C(=O)c3cc(-c4nc(Nc5ccnc(C#CCCN6CCN(CCCCCCCCCC(=O)N[C@H](C(=O)N7C[C@H](O)C[C@H]7C(=O)N[C@@H](C)c7ccc(-c8scnc8C)cc7)C(C)(C)C)CC6)c5)ncc4C)cn3C[C@H]2C)n1 [Compound B2-12P] | significantly increased DC50 value | – | – | – | – | –
616 ± 389 nM | – | Cc1cccc(CN2C(=O)c3cc(-c4nc(Nc5ccnc(C#CCCN6CCN(CCCCCCCCNc7cccc8c7C(=O)N(C7CCC(=O)NC7=O)C8=O)CC6)c5)ncc4C)cn3C[C@H]2C)n1 (stereo partly shown) [Compound B1-10P] | slightly increased DC50; also recorded: effective ERK1/2 degraders | – | > 30 µM | 2.2 ± 0.6 µM | > 30 µM | –
– | 110 to 111 °C | Cc1cccc(CN2C(=O)c3cc(-c4nc(Nc5ccnc(NCCCNC(=O)CCCCCCCCCNc6cccc7c6C(=O)N(C6CCC(=O)NC6=O)C7=O)c5)ncc4C)cn3C[C@H]2C)n1 (stereo partly shown) [Compound B1-10N] | degradative activity disappeared | – | – | – | – | –
383 ± 208 nM | 143 to 144 °C | Cc1cccc(CN2C(=O)c3cc(-c4nc(Nc5ccnc(C#CCCNC(=O)CCCCCCCCCCC(=O)N[C@H](C(=O)N6C[C@H](O)C[C@H]6C(=O)N[C@@H](C)c6ccc(-c7scnc7C)cc6)C(C)(C)C)c5)ncc4C)cn3C[C@H]2C)n1 [Compound B2-12] | effective ERK1/2 degraders | exceeding 65% | 7.5 ± 6.1 µM | 11.7 ± 10.5 µM | > 30 µM | –
698 ± 361 nM | 144 to 145 °C | Cc1cccc(CN2C(=O)c3cc(-c4nc(Nc5ccnc(C#CCCNC(=O)CCCCCCCCC(=O)N[C@H](C(=O)N6C[C@H](O)C[C@H]6C(=O)N[C@@H](C)c6ccc(-c7scnc7C)cc6)C(C)(C)C)c5)ncc4C)cn3C[C@H]2C)n1 [Compound B2-10] | effective ERK1/2 degraders | – | – | – | – | –
